How the values were obtained:
ryegrass, Italian [1] = test: Test C preemergence; assay type: in vivo, Lolium multiflorum
In short: (§1)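 Soil-applied (pre) and foliar (post, 1–2 leaf, 2–10 cm) sprays; surfactant-containing non-phytotoxic solvent vehicle; loam/sand substrate. Readout: visual % control at 10 d, greenhouse, versus untreated.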

barnyardgrass [2] = test: Test C preemergence; assay type: in vivo, Echinochloa crusgalli
In short: as §1

pigweed, palmer [3] = test: Test C preemergence; assay type: in vivo, Amaranthus palmeri
In short: as §1

ryegrass, Italian [4] = test: Test C postemergence; assay type: in vivo, Lolium multiflorum; settings: 10 days, 0 to 100 scale (0 no effect, 100 complete control)
In short: as §1

kochia [5] = test: Test C postemergence; assay type: in vivo, Bassia scoparia; settings: 10 days, 0 to 100 scale (0 no effect, 100 complete control)
In short: as §1

wheat [6] = test: Test C postemergence; assay type: in vivo, Triticum aestivum; settings: 10 days, 0 to 100 scale (0 no effect, 100 complete control)
In short: as §1

kochia [7] = test: Test C preemergence; assay type: in vivo, Bassia scoparia
In short: as §1

horseweed = test: Test C postemergence; assay type: in vivo, Erigeron canadensis; settings: 10 days, 0 to 100 scale (0 no effect, 100 complete control)
In short: as §1

sedge, umbrella = test: Test D flooded paddy test; assay type: in vivo, Cyperus difformis; settings: 250 g ai/ha, applied to paddy water, visual rating after 13 to 14 days, scale 0 to 100 (0 no effect, 100 complete control)
In short: (§2)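 Compounds go straight into paddy water over 2-leaf plants in pots flooded to 3 cm. Greenhouse holding lasts 13 to 14 days. Injury is scored by eye against controls from 0 (none) to 100 (complete control).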

rice = test: Test D flooded paddy test; assay type: in vivo, Oryza sativa; settings: 250 g ai/ha, applied to paddy water, visual rating after 13 to 14 days, scale 0 to 100 (0 no effect, 100 complete control)
In short: as §2

wheat [8] = test: Test C preemergence; assay type: in vivo, Triticum aestivum
In short: as §1

green foxtail [9] = test: Test C preemergence; assay type: in vivo, Setaria viridis
In short: as §1

barnyardgrass [10] = test: Test C postemergence; assay type: in vivo, Echinochloa crusgalli; settings: 10 days, 0 to 100 scale (0 no effect, 100 complete control)
In short: as §1

blackgrass [11] = test: Test C postemergence; assay type: in vivo, Alopecurus myosuroides; settings: 10 days, 0 to 100 scale (0 no effect, 100 complete control)
In short: as §1

corn [12] = test: Test C preemergence; assay type: in vivo, Zea mays
In short: as §1

ragweed [13] = test: Test C postemergence; assay type: in vivo, Ambrosia artemisiifolia; settings: 10 days, 0 to 100 scale (0 no effect, 100 complete control)
In short: as §1

soybean [14] = test: Test C postemergence; assay type: in vivo, Glycine max; settings: 10 days, 0 to 100 scale (0 no effect, 100 complete control)
In short: as §1

ducksalad = test: Test D flooded paddy test; assay type: in vivo, Heteranthera limosa; settings: 250 g ai/ha, applied to paddy water, visual rating after 13 to 14 days, scale 0 to 100 (0 no effect, 100 complete control)
In short: as §2

oat, wild [15] = test: Test C preemergence; assay type: in vivo, Avena fatua
In short: as §1

green foxtail [16] = test: Test C postemergence; assay type: in vivo, Setaria viridis; settings: 10 days, 0 to 100 scale (0 no effect, 100 complete control)
In short: as §1

galium = test: Test C postemergence; assay type: in vivo, Galium aparine; settings: 10 days, 0 to 100 scale (0 no effect, 100 complete control)
In short: as §1

barnyardgrass [17] = test: Test D flooded paddy test; assay type: in vivo, Echinochloa crus-galli; settings: 250 g ai/ha, applied to paddy water, visual rating after 13 to 14 days, scale 0 to 100 (0 no effect, 100 complete control)
In short: as §2

pigweed, palmer [18] = test: Test C postemergence; assay type: in vivo, Amaranthus palmeri; settings: 10 days, 0 to 100 scale (0 no effect, 100 complete control)
In short: as §1

soybean [19] = test: Test C preemergence; assay type: in vivo, Glycine max
In short: as §1

oat, wild [20] = test: Test C postemergence; assay type: in vivo, Avena fatua; settings: 10 days, 0 to 100 scale (0 no effect, 100 complete control)
In short: as §1

corn [21] = test: Test C postemergence; assay type: in vivo, Zea mays; settings: 10 days, 0 to 100 scale (0 no effect, 100 complete control)
In short: as §1

ragweed [22] = test: Test C preemergence; assay type: in vivo, Ambrosia artemisiifolia
In short: as §1

blackgrass [23] = test: Test C preemergence; assay type: in vivo, Alopecurus myosuroides
In short: as §1

[24] = 500 g ai/ha, preemergence, 0 to 100 scale (0 no effect, 100 complete control)
[25] = Preemergence, 125 g ai/ha, 0 to 100 scale, 0 no effect, 100 complete control

CCOC[C@H]1CN(C(=O)c2cc(-n3cnc(C4CCC4)n3)cc3c2OCCO3)c2cccc(Cl)c2O1 [Compound 386]
Ryegrass, Italian plant response rating (ryegrass, Italian [1]; [24]): 80 | Plant response rating, Ryegrass, Italian (ryegrass, Italian [1]; [25]): 50 | Barnyardgrass plant response rating (barnyardgrass [2]; [24]): 70 | Plant response rating, Barnyardgrass (barnyardgrass [2]; [25]): 40 | Pigweed, Palmer plant response rating (pigweed, palmer [3]; [24]): 100 | Plant response rating, Pigweed, Palmer (pigweed, palmer [3]; [25]): 100 | Plant response rating, Ryegrass, Italian (ryegrass, Italian [4]; 500 g ai/ha, postemergence): 60 | Plant response rating, Ryegrass, Italian (ryegrass, Italian [4]; Postemergence, 125 g ai/ha): 40 | Plant response rating, Kochia (kochia [5]; 500 g ai/ha, postemergence): 90 | Plant response rating, Kochia (kochia [5]; Postemergence, 125 g ai/ha): 80 | Plant response rating, Wheat (wheat [6]; 500 g ai/ha, postemergence): 10 | Plant response rating, Wheat (wheat [6]; Postemergence, 125 g ai/ha): 10 | Kochia plant response rating (kochia [7]; [24]): 70 | Plant response rating, Kochia (kochia [7]; [25]): 70 | Plant response rating, Horseweed (horseweed; 500 g ai/ha, postemergence): 60 | Plant response rating, Horseweed (horseweed; Postemergence, 125 g ai/ha): 30 | Plant response rating, Sedge, Umbrella (Flood) (sedge, umbrella): 0 | Plant response rating, Rice (Flood) (rice): 0 | Wheat plant response rating (wheat [8]; [24]): 0 | Plant response rating, Wheat (wheat [8]; [25]): 0 | Foxtail, Green plant response rating (green foxtail [9]; [24]): 90 | Plant response rating, Foxtail, Green (green foxtail [9]; [25]): 40 | Plant response rating, Barnyardgrass (barnyardgrass [10]; 500 g ai/ha, postemergence): 30 | Plant response rating, Barnyardgrass (barnyardgrass [10]; Postemergence, 125 g ai/ha): 20 | Plant response rating, Blackgrass (blackgrass [11]; 500 g ai/ha, postemergence): 50 | Plant response rating, Blackgrass (blackgrass [11]; Postemergence, 125 g ai/ha): 0 | Corn plant response rating (corn [12]; [24]): 20 | Plant response rating, Corn (corn [12]; [25]): 0 | Plant response rating, Ragweed (ragweed [13]; 500 g ai/ha, postemergence): 80 | Plant response rating, Ragweed (ragweed [13]; Postemergence, 125 g ai/ha): 50 | Plant response rating, Soybean (soybean [14]; 500 g ai/ha, postemergence): 100 | Plant response rating, Soybean (soybean [14]; Postemergence, 125 g ai/ha): 100 | Plant response rating, Ducksalad (Flood) (ducksalad): 0 | Oat, Wild plant response rating (oat, wild [15]; [24]): 40 | Plant response rating, Oat, Wild (oat, wild [15]; [25]): 30 | Plant response rating, Foxtail, Green (green foxtail [16]; 500 g ai/ha, postemergence): 50 | Plant response rating, Foxtail, Green (green foxtail [16]; Postemergence, 125 g ai/ha): 10 | Plant response rating, Galium (galium; 500 g ai/ha, postemergence): 100 | Plant response rating, Galium (galium; Postemergence, 125 g ai/ha): 100 | Plant response rating, Barnyardgrass (Flood) (barnyardgrass [17]): 0 | Plant response rating, Pigweed, Palmer (pigweed, palmer [18]; 500 g ai/ha, postemergence): 100 | Plant response rating, Pigweed, Palmer (pigweed, palmer [18]; Postemergence, 125 g ai/ha): 80 | Soybean plant response rating (soybean [19]; [24]): 100 | Plant response rating, Soybean (soybean [19]; [25]): 50 | Plant response rating, Oat, Wild (oat, wild [20]; 500 g ai/ha, postemergence): 0 | Plant response rating, Oat, Wild (oat, wild [20]; Postemergence, 125 g ai/ha): 0 | Plant response rating, Corn (corn [21]; 500 g ai/ha, postemergence): 20 | Plant response rating, Corn (corn [21]; Postemergence, 125 g ai/ha): 10 | Ragweed plant response rating (ragweed [22]; [24]): 80 | Plant response rating, Ragweed (ragweed [22]; [25]): 20 | Blackgrass plant response rating (blackgrass [23]; [24]): 0 | Plant response rating, Blackgrass (blackgrass [23]; [25]): 0

— patent publication US20260262643A1, “HERBICIDAL BENZOXAZINES” (FMC CORPORATION, priority 2022, published 2026)
